# Test results from US11033567B2, “5-aza-2′-deoxycytidine and methods of use thereof for promoting wound healing and regeneration” (THE TRUSTEES OF THE UNIVERSITY OF PENNSYLVANIA, priority 2014, dated 2021).
# “Also recorded” adds a separate entry of the source.
# Key:
# [1] = test system: C57B mice carrying full-thickness skin wounds; assay: Effect of topical Aza-dC treatment on wound healing and hair follicle regeneration; format: in vivo; settings: for hair follicle (HF) neogenesis compared to the vehicle control / hair follicle regeneration: topical; for hair follicle (HF) neogenesis compared to the vehicle control: once a day for 2 consecutive days (SD0 & SD1); for hair follicle regeneration: once a day for 5 consecutive days
# Excerpt: Determining the Effect of Topical Aza-dC Treatment on Wound Healing and Regeneration: […]
# [2] = test system: C57B mice carrying full-thickness skin wounds; assay: Effect of systemic Aza-dC treatment (injection) on wound healing and hair follicle regeneration; format: in vivo
# Excerpt: Determining the Effect of Systemic Aza-dC Treatment on Wound Healing and Regeneration:
# The dermis was fixed in acetone overnight.
smiles,measurement,setting,value
"Nc1ncn([C@H]2C[C@H](O)[C@@H](CO)O2)c(=O)n1 [Aza-dC, 5-aza-2′-deoxycytidine]",inhibitory effect on wound-induced hair follicle regeneration,"[1]; topical application, unlike systemic treatment",little inhibitory effect
same,stimulatory effect on regeneration,[1]; topical treatment extended to 5 days (SD0 to SD4),diminished
same,hair follicle (HF) neogenesis compared to the vehicle control,[1]; all doses tested,greatly enhanced
same,hair follicle (HF) neogenesis compared to the vehicle control,[1]; highest tested dose 10 μg,strongest enhancement
same,hair follicle regeneration,[1]; 1 μg,little effect
same,hair follicle regeneration,[1]; 5 μg,little effect
same,hair follicle regeneration,[1]; 10 μg,still enhanced
same,regeneration of hair follicles in healed wounds,"[2]; injection, 30 μg per gram body weight once a day for 5 consecutive days (SD0 to SD4)",greatly inhibited
same,hair follicle regeneration,[2]; single injection of 30 μg per gram body weight on SD0,no effect
same,hair follicle regeneration,[2]; single injection of 30 μg per gram body weight on SD1,inhibition on hair follicle regeneration; also recorded: greatly inhibited
